Row | SMILES | melting point [°C]
1 | COc1ccc(C)c(NC(=O)CC2C3CC4CC(C3)CC2C4)c1 (centres unmarked) [Example 1, 2-(2-Adamantyl)-N-(5-methoxy-2-methylphenyl)acetamide] | 193 to 196
2 | O=C(CC1C2CC3CC(C2)CC1C3)Nc1cccc2[nH]ccc12 (centres unmarked) [Example 2, 2-(2-Adamantyl)-N-1H-indol-4-ylacetamide] | 206 to 208
